Test results reported in US12581252B2, “Substituted pyrrolo[3,4-b]pyridines as PI3K-α inhibitors” (Relay Therapeutics, Inc., priority 2020, dated 2026).

Biological target: H1047R PIK3CA enzyme (Homo sapiens, UniProt P42336, H1047R)
Assay: ADP-Glo Biochemical PIK3CA Kinase Assay

Sequence of H1047R PIK3CA enzyme (P42336 whole entry H1047R): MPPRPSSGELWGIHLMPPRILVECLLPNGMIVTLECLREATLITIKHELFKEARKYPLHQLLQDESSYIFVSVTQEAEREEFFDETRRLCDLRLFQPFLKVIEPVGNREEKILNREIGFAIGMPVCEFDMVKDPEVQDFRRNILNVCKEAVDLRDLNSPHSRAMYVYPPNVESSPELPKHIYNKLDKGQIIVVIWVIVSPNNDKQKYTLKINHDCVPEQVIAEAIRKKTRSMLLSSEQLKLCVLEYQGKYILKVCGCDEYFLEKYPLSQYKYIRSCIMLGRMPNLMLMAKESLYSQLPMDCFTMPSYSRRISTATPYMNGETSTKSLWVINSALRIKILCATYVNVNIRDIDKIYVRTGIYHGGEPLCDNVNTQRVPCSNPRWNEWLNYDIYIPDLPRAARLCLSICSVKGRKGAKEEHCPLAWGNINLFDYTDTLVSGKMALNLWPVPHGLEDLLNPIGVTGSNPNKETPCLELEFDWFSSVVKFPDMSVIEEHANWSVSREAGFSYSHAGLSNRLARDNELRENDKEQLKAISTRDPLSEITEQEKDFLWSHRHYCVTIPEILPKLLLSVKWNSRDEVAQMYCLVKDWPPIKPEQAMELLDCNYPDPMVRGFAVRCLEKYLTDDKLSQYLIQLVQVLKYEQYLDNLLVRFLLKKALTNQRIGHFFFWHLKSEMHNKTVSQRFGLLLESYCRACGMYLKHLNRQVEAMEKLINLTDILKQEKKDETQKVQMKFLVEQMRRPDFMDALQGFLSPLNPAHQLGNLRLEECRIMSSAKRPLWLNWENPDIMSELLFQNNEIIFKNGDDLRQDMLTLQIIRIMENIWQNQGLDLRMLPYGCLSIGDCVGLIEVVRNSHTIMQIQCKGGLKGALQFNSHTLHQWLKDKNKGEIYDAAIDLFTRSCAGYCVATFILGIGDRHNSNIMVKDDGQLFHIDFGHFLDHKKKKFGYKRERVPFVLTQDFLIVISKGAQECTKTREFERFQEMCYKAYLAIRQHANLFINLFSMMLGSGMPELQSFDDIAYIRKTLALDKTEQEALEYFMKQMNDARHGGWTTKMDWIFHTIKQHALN
Sequence of H1047R PIK3CA enzyme (P27986 whole entry partner): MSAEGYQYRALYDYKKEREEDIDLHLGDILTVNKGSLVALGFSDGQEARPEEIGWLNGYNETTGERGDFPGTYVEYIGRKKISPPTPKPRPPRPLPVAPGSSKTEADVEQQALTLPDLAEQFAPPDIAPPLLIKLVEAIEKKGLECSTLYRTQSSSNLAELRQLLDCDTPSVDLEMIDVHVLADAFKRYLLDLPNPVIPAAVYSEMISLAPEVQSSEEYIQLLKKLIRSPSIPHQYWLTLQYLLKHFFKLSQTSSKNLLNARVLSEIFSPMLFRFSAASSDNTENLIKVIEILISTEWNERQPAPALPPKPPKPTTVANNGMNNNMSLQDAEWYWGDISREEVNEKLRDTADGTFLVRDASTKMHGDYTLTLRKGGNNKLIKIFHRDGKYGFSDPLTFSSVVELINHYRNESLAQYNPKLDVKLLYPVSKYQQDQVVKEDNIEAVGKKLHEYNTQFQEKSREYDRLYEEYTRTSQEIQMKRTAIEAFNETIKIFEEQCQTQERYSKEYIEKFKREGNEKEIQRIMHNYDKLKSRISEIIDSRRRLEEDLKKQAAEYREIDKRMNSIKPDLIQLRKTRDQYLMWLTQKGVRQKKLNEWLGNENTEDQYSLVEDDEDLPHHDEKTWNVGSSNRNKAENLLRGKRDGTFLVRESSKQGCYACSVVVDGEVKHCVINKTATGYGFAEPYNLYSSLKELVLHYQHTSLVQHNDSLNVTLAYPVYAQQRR

| Compound | IC50 |
| --- | --- |
| NC(=O)COc1ncc(-c2cc(NC(=O)c3cc(F)cc(C(F)(F)F)c3)c3c(c2)C(=O)NC3c2cc(F)ccc2Cl)cn1 (stereo not shown) [Compound I-1416] | ≤ 100 nM |
| O=C(Nc1cc(Br)cc2c1C(c1cc(F)ccc1Cl)NC2=O)c1csc(Cl)c1Cl (stereo not shown) [Compound I-1417] | 1000 to 10000 nM |
| COc1ncc(-c2cc(NC(=O)c3cc(F)cc(C(F)(F)F)c3)c3c(c2)C(=O)NC3c2cc(F)ccc2Cl)cc1F (stereo not shown) [Compound I-1419] | ≤ 100 nM |
| N#CCn1cc(-c2cc(NC(=O)c3cc(F)cc(C(F)(F)F)c3)c3c(c2)C(=O)NC3c2cc(F)ccc2Cl)cn1 (stereo not shown) [Compound I-1420] | ≤ 100 nM |
| CC(C)(O)COc1cc(NC(=O)c2cc(F)cc(C(F)(F)F)c2)c2c(n1)C(=O)NC2c1cc(F)ccc1Cl (stereo not shown) [Compound I-1421] | 100 to 500 nM |
| C=CCCNC(=O)c1cc(NC(=O)c2cc(F)cc(C(F)(F)F)c2)c2c(c1)C(=O)NC2c1cc(F)ccc1Cl (stereo not shown) [Compound I-1422] | ≤ 100 nM |
| O=C(Nc1cc(Br)cc2c1C(c1cc(F)ccc1Cl)NC2=O)c1ccc(C(F)(F)F)o1 (stereo not shown) [Compound I-1423] | 1000 to 10000 nM |
| O=C1NC(c2cc(F)ccc2Cl)c2c(NC(=O)c3cc(F)cc4ccc(=O)[nH]c34)cc(Br)cc21 (stereo not shown) [Compound I-1424] | 1000 to 10000 nM |
| Nc1csnc1C(=O)Nc1cc(Br)cc2c1C(c1cc(F)ccc1Cl)NC2=O (stereo not shown) [Compound I-1425] | 10000 to 100000 nM |
| O=C1NC(c2cc(F)ccc2Cl)c2c(NC(=O)c3nsc(Cl)c3Cl)cc(Br)cc21 (stereo not shown) [Compound I-1426] | 1000 to 10000 nM |
| O=C(Nc1cc(Br)cc2c1C(c1cc(F)ccc1Cl)NC2=O)c1ccc(C(F)(F)F)s1 (stereo not shown) [Compound I-1427] | 1000 to 10000 nM |
| O=C(Nc1cc(Br)cc2c1C(c1cc(F)ccc1Cl)NC2=O)c1cc(C(F)(F)F)cs1 (stereo not shown) [Compound I-1428] | 1000 to 10000 nM |
| O=C1NC(c2cc(F)ccc2Cl)c2c(NC(=O)N3CCc4ccc(=O)[nH]c43)cc(Br)cc21 (stereo not shown) [Compound I-1429] | 10000 to 100000 nM |
| O=C(Nc1cc(Cn2ccnc2)cc2c1C(c1cc(F)ccc1Cl)NC2=O)c1cc(F)cc(C(F)(F)F)c1 (stereo not shown) [Compound I-1430] | ≤ 100 nM |
| Cc1ccccc1S(=O)(=O)Cc1cc(NC(=O)c2cc(F)cc(C(F)(F)F)c2)c2c(c1)C(=O)NC2c1cc(F)ccc1Cl (stereo not shown) [Compound I-1433] | ≤ 100 nM |
| CN=S(C)(=O)Cc1cc(NC(=O)c2cc(F)cc(C(F)(F)F)c2)c2c(c1)C(=O)NC2c1cc(F)ccc1Cl (stereo not shown) [Compound I-1434] | ≤ 100 nM |

| Compound | IC50 |
| --- | --- |
| CS(=O)(Cc1cc(NC(=O)c2cc(F)cc(C(F)(F)F)c2)c2c(c1)C(=O)NC2c1cc(F)ccc1Cl)=Nc1ccccc1 (stereo not shown) [Compound I-1435] | ≤ 100 nM |
| O=C(Nc1cc(CS(=O)(=O)c2ccccc2)cc2c1C(c1cc(F)ccc1Cl)NC2=O)c1cc(F)cc(C(F)(F)F)c1 (stereo not shown) [Compound I-1436] | ≤ 100 nM |
| N#Cc1cc2nccn2cc1-c1cc(NC(=O)c2cc(F)cc(C(F)(F)F)c2)c2c(c1)C(=O)NC2c1cc(F)ccc1Cl (stereo not shown) [Compound I-1437] | ≤ 100 nM |
| COc1ccc(-c2cc(NC(=O)c3cc(F)cc(C(F)(F)F)c3)c3c(c2)C(=O)NC3c2cc(F)ccc2Cl)nn1 (stereo not shown) [Compound I-1438] | ≤ 100 nM |
| CN(C)S(=O)(=O)n1nccc1-c1cc(NC(=O)c2cc(F)cc(C(F)(F)F)c2)c2c(c1)C(=O)NC2c1cc(F)ccc1Cl (stereo not shown) [Compound I-1439] | ≤ 100 nM |
| O=C(Nc1cc(-c2cn3ncnc3cn2)cc2c1[C@@H](c1cc(F)ccc1Cl)NC2=O)c1cc(F)cc(C(F)(F)F)c1 [Compound I-1440] | 1000 to 10000 nM |
| N#Cc1cnc2ccc(-c3cc(NC(=O)c4cc(F)cc(C(F)(F)F)c4)c4c(c3)C(=O)N[C@@H]4c3cc(F)ccc3Cl)cn12 [Compound I-1442] | 100 to 500 nM |
| N#Cc1cnc2ccc(-c3cc(NC(=O)c4cc(F)cc(C(F)(F)F)c4)c4c(c3)C(=O)N[C@H]4c3cc(F)ccc3Cl)cn12 [Compound I-1443] | ≤ 100 nM |
| Nc1nc2ccc(-c3cc(NC(=O)c4cc(F)cc(C(F)(F)F)c4)c4c(c3)C(=O)N[C@@H]4c3cc(F)ccc3Cl)cn2n1 [Compound I-1444] | ≤ 100 nM |
| Nc1nc2ccc(-c3cc(NC(=O)c4cc(F)cc(C(F)(F)F)c4)c4c(c3)C(=O)N[C@H]4c3cc(F)ccc3Cl)cn2n1 [Compound I-1445] | ≤ 100 nM |
| Nc1nc2cc(-c3cc(NC(=O)c4cc(F)cc(C(F)(F)F)c4)c4c(c3)C(=O)N[C@@H]4c3cc(F)ccc3Cl)ccn2n1 [Compound I-1446] | ≤ 100 nM |
| Nc1nc2cc(-c3cc(NC(=O)c4cc(F)cc(C(F)(F)F)c4)c4c(c3)C(=O)N[C@H]4c3cc(F)ccc3Cl)ccn2n1 [Compound I-1447] | ≤ 100 nM |
| Nc1nnc2ccc(-c3cc(NC(=O)c4cc(F)cc(C(F)(F)F)c4)c4c(c3)C(=O)N[C@@H]4c3cc(F)ccc3Cl)cn12 [Compound I-1448] | 500 to 1000 nM |
| Nc1nnc2ccc(-c3cc(NC(=O)c4cc(F)cc(C(F)(F)F)c4)c4c(c3)C(=O)N[C@H]4c3cc(F)ccc3Cl)cn12 [Compound I-1449] | ≤ 100 nM |
| O=C(Nc1cc(-c2ccn3ccnc3c2)cc2c1[C@H](c1cc(F)ccc1Cl)NC2=O)c1cc(F)cc(C(F)(F)F)c1 [Compound I-1450] | ≤ 100 nM |
